Values after ≈ are worked out from the molar mass of the structure shown.
Key:
P. aeruginosa PBP3 = biological target: T1, P. aeruginosa PBP3 (Pseudomonas aeruginosa, UniProt G3XD46); assay: Bocillin-FL fluorescence polarization competition binding assay, P. aeruginosa PBP3; details: fluorescence polarization competition binding assay using Bocillin-FL
T1 construct: made in house
Outline: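 Inhibitor competition with Bocillin-FL for P. aeruginosa PBP3 was followed by fluorescence polarization on a Cytation3 (BioTek) reader, using g-factor 0.96, 490 nm excitation and 520 nm emission. The enzyme was at 0.75 μM and the probe at 0.1 μM in Hepes/NaCl/glycerol buffer, 80 μl per well. FP was recorded immediately after probe addition for up to 60 minutes. Potency was expressed as EC50, the concentration that reduces bound probe by 50%.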

[1] = system: P. aeruginosa (ΔmexAB-oprM); assay: Broth microdilution MIC in CAMHB; assay type: cell-based; details: Pseudomonas aeruginosa, read-out: Minimum Inhibitory Concentration, P. aeruginosa ΔmexAB-OprM
Outline: (§1)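 Lowest compound concentration with no visible growth after 16-20 h at 37 °C defines MIC. Plates of 2-fold serial dilutions in cation-adjusted Mueller Hinton broth received 2-8×10^5 CFU/mL of exponentially grown cells, per CLSI methods; panel spans reference, hyper-permeable and efflux-pump-deleted strains.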

[2] = system: K. pneumoniae SI-117 producing VIM-1; assay: Broth microdilution MIC in CAMHB; assay type: cell-based; details: Klebsiella pneumoniae, read-out: Minimum Inhibitory Concentration, K. pneumoniae SI-117
Outline: as §1

[3] = system: K. pneumoniae UMM producing SHV-5 and KPC-2; assay: Broth microdilution MIC in CAMHB; assay type: cell-based; details: Klebsiella pneumoniae, read-out: Minimum Inhibitory Concentration, K. pneumoniae UMM
Outline: as §1

P. aeruginosa ATCC 35151 = assay: Broth microdilution MIC in CAMHB; assay type: cell-based; details: Pseudomonas aeruginosa, ATCC35151; MHB; hyper-permeable strain; read-out: Minimum Inhibitory Concentration, P. aeruginosa ATCC 35151
Outline: as §1

E. coli D22 = assay: Broth microdilution MIC in CAMHB; assay type: cell-based; details: Escherichia coli; E. coli D22 (hyper-permeable); MHB; read-out: Minimum Inhibitory Concentration, E. coli D22
Outline: as §1

E. coli AG100 = assay: Broth microdilution MIC in CAMHB; assay type: cell-based; details: Escherichia coli; E. coli AG100 (wild-type parent); MHB; read-out: Minimum Inhibitory Concentration, E. coli AG100
Outline: as §1

[4] = system: K. pneumoniae 848844 producing SHV-11 and KPC-2; assay: Broth microdilution MIC in CAMHB; assay type: cell-based; details: Klebsiella pneumoniae, read-out: Minimum Inhibitory Concentration, K. pneumoniae 848844
Outline: as §1

A. baumannii ATCC 19606 = assay: Broth microdilution MIC in CAMHB; assay type: cell-based; details: Acinetobacter baumannii, ATCC19606; MHB; read-out: Minimum Inhibitory Concentration, A. baumannii ATCC 19606
Outline: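 MIC, read by eye, is the lowest compound concentration giving no bacterial growth after 16-20 h at 37° C. Test compounds are serially diluted 2-fold in CAMHB and seeded with 2-8×10^5 CFU/mL of bacteria taken from a 3-5 h shaking culture, following CLSI methods.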

E. coli 901C = assay: Broth microdilution MIC in CAMHB; assay type: cell-based; details: Escherichia coli; E. coli 901C (hyper-permeable); MHB; read-out: Minimum Inhibitory Concentration, E. coli 901C
Outline: as §1

E. coli ATCC 25922 = assay: Broth microdilution MIC in CAMHB; assay type: cell-based; details: Escherichia coli, ATCC25922; E. coli ATCC 25922; MHB; read-out: Minimum Inhibitory Concentration, E. coli 25922
Outline: as §1

E. coli AG100A = assay: Broth microdilution MIC in CAMHB; assay type: cell-based; details: Escherichia coli, read-out: Minimum Inhibitory Concentration, E. coli AG100A
Outline: as §1

P. aeruginosa ATCC 27853 = assay: Broth microdilution MIC in CAMHB; assay type: cell-based; details: Pseudomonas aeruginosa, ATCC27853; MHB; read-out: Minimum Inhibitory Concentration, P. aeruginosa ATCC 27853
Outline: as §1

E. coli K12 PBP3 = biological target: T2, E. coli K12 PBP3 (Escherichia coli, UniProt P0AD68); assay: biochemical; assay type: binding
T2 construct: made in house
T2 sequence (P0AD68 1-577): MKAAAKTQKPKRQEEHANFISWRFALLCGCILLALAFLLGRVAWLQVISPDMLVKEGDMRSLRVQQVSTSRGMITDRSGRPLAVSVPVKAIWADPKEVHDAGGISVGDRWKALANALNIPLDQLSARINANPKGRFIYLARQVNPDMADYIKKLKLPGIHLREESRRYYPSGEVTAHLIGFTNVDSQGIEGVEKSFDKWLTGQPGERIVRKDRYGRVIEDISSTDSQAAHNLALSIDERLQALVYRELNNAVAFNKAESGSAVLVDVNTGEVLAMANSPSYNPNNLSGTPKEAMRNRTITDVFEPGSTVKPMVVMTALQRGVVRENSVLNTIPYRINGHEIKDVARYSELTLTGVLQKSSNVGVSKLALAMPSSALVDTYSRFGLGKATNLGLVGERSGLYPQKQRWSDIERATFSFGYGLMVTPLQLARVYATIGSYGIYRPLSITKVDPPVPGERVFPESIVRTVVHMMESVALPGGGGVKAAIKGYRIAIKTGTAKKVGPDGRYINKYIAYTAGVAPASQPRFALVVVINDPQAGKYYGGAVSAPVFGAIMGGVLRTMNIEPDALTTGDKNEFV
Description: Example I: Experimental Method for Penicillin-Binding Protein Binding Assays with Bocillin-FL Via Fluorescence Polarization
To determine the ability of boronic acid-based test PBP inhibitors to bind Penicillin Binding Proteins (PBPs), Bocillin-FL (fluorescently-labeled penicillin V; ThermoFisher Scientific) was used in a fluorescence polarization (FP) competition binding assay to assess inhibitor binding to PBP2, PBP3 or PBP4 from Escherichia coli (K12), PBP3 from Pseudomonas aeruginosa (PA01), PBP1a, PBP2 and PBP3 from Acinetobacter baumannii (ATCC 19606), and PBP2 from Neiserria gonorrheae (FA19). PBPs were cloned and purified as described previously (E. coli PBPs, King, D. T, et al., ACS Infectious Diseases 2015, 1, 175-184; P. aeruginosa PBP3, Han et. al., PNAS 2010, 107 (51), 22002-22007; A. baumannii PBPs, Penwell et. al., Antimicrob. Agents Chemother. 2015, 59 (3), 1680-1689; N. gonorrhoeae PBP2, Singh et. al., J Biol. Chem. 2019, 294 (38), 14020-14032). To establish assay conditions for competition binding, enzyme titration/saturation binding experiments were initially performed. Bocillin-FL was prepared at 0.2 μM in a buffer comprised of 50 mM Hepes (pH 8.0), 300 mM NaCl and 5% (v/v) glycerol for reactions with E. coli, P. aeruginosa and N. gonorrhoeae PBPs, and 25 mM Tris (pH 8.0), 200 mM NaCl and 10% (v/v) glycerol and 0.005% (v/v) Tween 20 for reactions with A. baumannii PBPs. Saturation binding was performed by mixing 40 μl of PBP solutions ranging in concentrations from 0-24 μM with 40 μl of the 0.2 μM Bocillin-FL solution, in individual wells of a black 384-well microplate. FP was measured immediately upon mixing (Excitation, 490 nm; Emission, 520 nm; g-factor, 0.96), using a Cytation3 (BioTek) microplate reader and measured continuously for up to 120 minutes. […] The competition binding assay (80 μl final volume) was validated using beta-lactams and PBPs at final concentrations of: 1.5 μM, E. coli PBP3; 0.75 μM, P. aeruginosa PBP3; 1 μM A. baumannii PBP1a; 2.5 μM A. baumannii PBP2; 0.2 μM A. baumannii PBP3; and […] N. gonorrhoeae PBP2. Bocillin-FL was at 0.1 μM (0.05 μM with A. baumannii PBP1a) and beta-lactam concentrations ranged from 0-1000 μM. […] Bocillin-FL was added and the FP immediately measured for up to 60 minutes (90 minutes for E. coli PBP2). […] The beta-lactam potency was reported as the concentration of beta-lactam required to reduce the amount of PBP bound-Bocillin-FL by 50% (EC50). […] Binding assays for boronic acid PBP inhibitors were performed in an identical fashion for the respective PBPs

T1 sequence (G3XD46 whole entry): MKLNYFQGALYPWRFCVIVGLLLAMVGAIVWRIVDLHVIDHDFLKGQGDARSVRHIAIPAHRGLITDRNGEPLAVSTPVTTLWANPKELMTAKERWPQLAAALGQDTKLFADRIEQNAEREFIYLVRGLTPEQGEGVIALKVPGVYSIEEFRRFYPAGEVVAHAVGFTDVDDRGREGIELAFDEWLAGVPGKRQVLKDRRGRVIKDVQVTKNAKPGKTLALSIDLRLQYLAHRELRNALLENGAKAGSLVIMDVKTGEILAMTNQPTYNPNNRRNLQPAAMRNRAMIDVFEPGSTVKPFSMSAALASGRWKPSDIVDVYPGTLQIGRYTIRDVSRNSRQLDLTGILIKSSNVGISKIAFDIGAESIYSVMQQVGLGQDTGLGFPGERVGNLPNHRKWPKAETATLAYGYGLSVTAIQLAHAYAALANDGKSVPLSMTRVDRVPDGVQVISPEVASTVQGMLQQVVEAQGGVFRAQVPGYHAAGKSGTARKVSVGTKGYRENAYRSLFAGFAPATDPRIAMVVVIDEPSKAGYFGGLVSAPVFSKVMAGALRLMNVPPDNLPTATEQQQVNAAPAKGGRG

| SMILES | P. aeruginosa PBP3 Potency (P. aeruginosa PBP3) | MIC [1] [µg/mL] | MIC [2] [µg/mL] | MIC [3] [µg/mL] | MIC (P. aeruginosa ATCC 35151) [µg/mL] | MIC (E. coli D22) [µg/mL] | MIC (E. coli AG100) [µg/mL] | MIC [4] [µg/mL] | MIC (A. baumannii ATCC 19606) [µg/mL] | MIC (E. coli 901C) [µg/mL] | MIC (E. coli ATCC 25922) [µg/mL] | MIC (E. coli AG100A) [µg/mL] | MIC (P. aeruginosa ATCC 27853) [µg/mL] | EC50 (E. coli K12 PBP3) [µM] |
| --- | --- | --- | --- | --- | --- | --- | --- | --- | --- | --- | --- | --- | --- | --- |
| O=C(O)c1cccc2c1OB(O)[C@@H](NC(=O)[C@H](NC(=O)N1CCN(CC(F)(F)F)C(=O)C1=O)c1c(F)cc(O)cc1F)C2 (single isomer, unassigned) [Example 215] | C (C represents a potency between 10 and 30 μM) | 32 to 64 (≈ 52.1 to 104 µM) | 32 to 64 (≈ 52.1 to 104 µM) | 32 to 64 (≈ 52.1 to 104 µM) | 8 to 16 (≈ 13 to 26 µM) | 2 to 4 (≈ 3.26 to 6.51 µM) | 32 to 64 (≈ 52.1 to 104 µM) | > 128 | > 128 | < 0.25 | 32 to 64 (≈ 52.1 to 104 µM) | 2 to 4 (≈ 3.26 to 6.51 µM) | > 128 | < 30 |
| NS(=O)(=O)Nc1cccc([C@H](NC(=O)N2CCN(CC(F)(F)F)C(=O)C2=O)C(=O)N[C@H]2Cc3cccc(C(=O)O)c3OB2O)c1 (single isomer, unassigned) [Example 216] | C (C represents a potency between 10 and 30 μM) | 32 to 64 (≈ 48.8 to 97.5 µM) | > 128 | > 128 | 8 to 16 (≈ 12.2 to 24.4 µM) | 8 to 16 (≈ 12.2 to 24.4 µM) | > 128 | > 128 | > 128 | 2 to 4 (≈ 3.05 to 6.09 µM) | > 128 | 32 to 64 (≈ 48.8 to 97.5 µM) | > 128 | 30 to 500 |
| NS(=O)(=O)Nc1cccc([C@@H](NC(=O)N2CCN(CC(F)(F)F)C(=O)C2=O)C(=O)N[C@H]2Cc3cccc(C(=O)O)c3OB2O)c1 (single isomer, unassigned) [Example 217] | D (D represents a potency <10 μM) | 8 to 16 (≈ 12.2 to 24.4 µM) | > 128 | 32 to 64 (≈ 48.8 to 97.5 µM) | 2 to 4 (≈ 3.05 to 6.09 µM) | 2 to 4 (≈ 3.05 to 6.09 µM) | 32 to 64 (≈ 48.8 to 97.5 µM) | > 128 | > 128 | 0.5 to 1 (≈ 0.762 to 1.52 µM) | 32 to 64 (≈ 48.8 to 97.5 µM) | 8 to 16 (≈ 12.2 to 24.4 µM) | > 128 | < 30 |
| NS(=O)(=O)Nc1ccc(F)c([C@H](NC(=O)N2CCN(CC(F)(F)F)C(=O)C2=O)C(=O)N[C@H]2Cc3cccc(C(=O)O)c3OB2O)c1 (single isomer, unassigned) [Example 218] | C (C represents a potency between 10 and 30 μM) | 32 to 64 (≈ 47.5 to 94.9 µM) | > 128 | > 128 | 8 to 16 (≈ 11.9 to 23.7 µM) | 8 to 16 (≈ 11.9 to 23.7 µM) | > 128 | > 128 | > 128 | 0.5 to 1 (≈ 0.741 to 1.48 µM) | > 128 | 32 to 64 (≈ 47.5 to 94.9 µM) | > 128 | 30 to 500 |
| NS(=O)(=O)Nc1ccc(F)c([C@@H](NC(=O)N2CCN(CC(F)(F)F)C(=O)C2=O)C(=O)N[C@H]2Cc3cccc(C(=O)O)c3OB2O)c1 (single isomer, unassigned) [Example 219] | D (D represents a potency <10 μM) | 8 to 16 (≈ 11.9 to 23.7 µM) | 32 to 64 (≈ 47.5 to 94.9 µM) | 32 to 64 (≈ 47.5 to 94.9 µM) | 2 to 4 (≈ 2.97 to 5.93 µM) | 2 to 4 (≈ 2.97 to 5.93 µM) | 32 to 64 (≈ 47.5 to 94.9 µM) | > 128 | > 128 | 0.5 to 1 (≈ 0.741 to 1.48 µM) | 32 to 64 (≈ 47.5 to 94.9 µM) | 2 to 4 (≈ 2.97 to 5.93 µM) | > 128 | < 30 |

— patent US20230114728A1 (Venatorx Pharmaceuticals, Inc., priority 2019, published 2023)
